Assay results reported in patent US20160022775A1, “TREATING LYSOSOMAL STORAGE DISEASE” (UNIVERSITY OF ROCHESTER, priority 2013, published 2016).

Legend:
[1] = tested on: immortalized cell line characterized as an oligodendrocyte progenitor cell line; settings: Zaka et al.; over 24 hours; cited from earlier work
OPCs = assay: OPC division by clonal analysis in the presence of psychosine; assay type: cell-based, rat; settings: OPCs grown in the presence of PDGF for 6 days
Protocol: As shown, by day 3 even 3.3 μM PC caused marked cell death. Division was analyzed by clonal analysis, and exposure to 1 μM PC caused a marked reduction in clonal size for cells grown in the presence of PDGF for 6 days.
(§1) Studies on division and survival of OPCs exposed to 0.1, 0.5, 1, 2, 5 or 10 μM PC, GPS or LS were conducted for 1, 2, 3 or 5 days. These experiments followed standard procedures (see Mayer et al. PNAS, 91: 7496-7500 (1994); Dietrich et al. J. Biol. 5: e22 (2006); and Han et al. J. Biol. 7 (4):12 (2008)) except that cell death was quantified using calcein AM and propidium iodide (PI) labeling of live cultures was used to identify live and dead cells, respectively. […] These dyes effectively overcome the problems with dyes for which cell numbers are inferred from metabolic activity (e.g., MTT, Alamar Blue), and provide quantitative information on cell numbers. Independent confirmation was obtained in all cases by visual examination of cultures. In these, and all other cases, all experiments were repeated at least three times, and all data points were collected in triplicate. All experiments were conducted in conditions of 5% O2, to more closely mimic physiological oxygen concentrations.

[2] = tested on: lysosomal pH of cells exposed to psychosine; assay: Lysosomal pH in cells exposed to psychosine; assay type: cell-based; settings: cells exposed to psychosine versus normal cells
Excerpt: The effects of cytoskeletal collapse and changes in lysosomal pH were examined. […] The agents that protect both division and survival also restore lysosomal pH to a normal range. However, […] that rescue cell division examined for their effects on lysosomal pH also restore normal levels of pH. Thus, rescuing lysosomal pH is not sufficient to rescue cell survival. Further, agents chosen solely on the basis of rescue of lysosomal pH are not sufficient to also function as rescue agents in cell survival.

primary OPCs = assay: Survival of OPCs exposed to toxic lipids (calcein AM / propidium iodide, CELIGO); assay type: cell-based
Protocol: Whether toxic lipids have similar effects on the function of oligodendrocyte precursor cells (OPCs, the direct ancestors of myelin-forming oligodendrocytes), due to the common features of myelin breakdown and failure to repair such damage in LSDs, was determined. These experiments all used standard techniques (see Mayer et al. PNAS, 91: 7496-7500 (1994); Ibarrola et al. Dev. Biol. 180: 1-121 (1996); Smith et al. PNAS 97: 10032-10037 (2000); Power et al. Dev. Biol. 245: 362-375 (2002); Dietrich et al. J. Biol. 5: e22 (2006); Li et al. PLoS Biol. 5: e35 (2007)), as adapted to enable rapid automated analysis of microscopy images captured using the CELIGO® imaging system (Brooks Automation, Chelmsford, Mass.). This system enables collection of data using brightfield and three-color fluorescence and provides similar information to be obtained at the single cell level in adherent cell cultures as yielded by flow cytometry. This approach enables quantitatively analysis of 80 different experimental conditions (in triplicate) per hour.
as §1
The sensitivity of primary OPCs to PC was determined. The sensitivity of the cells to glucopsychosine (GPC) and lysosulfatide (LS) was also examined. […] Thus, OPCs are even more sensitive to PC than oligodendrocytes, which are sensitive at 10 μM psychosine. More critically, they are an order of magnitude more sensitive than indicated by studies described in Zaka et al. (Mol. Cell Neurosci. 30 (3): 398-407 (2005)) on immortalized cell lines.

[3] = tested on: human fetal neuroepithelial stem cells (hNSCs); assay: Sensitivity of human CNS precursor cells to toxic lipids; assay type: cell-based
[4] = tested on: oligodendrocyte progenitor cells; assay: Migration of oligodendrocyte progenitor cells outward from a drop of cells; assay type: cell-based; settings: OPCs exposed to PDGF; not a lethal level
Protocol: Exposure of oligodendrocyte progenitor cells to 1 μM psychosine is enough to greatly reduce cell migration.
Another aspect of psychosine function is to cause alterations in the cytoskeleton, which in dividing cells is manifested as a failure of migration. The migration of oligodendrocyte progenitor cells outward from a drop of cells was examined. Cells were stained with calcein to label living cells and propidium iodide (PI) to label dead cells. […] This effect was observed on multiple cell types.

oligodendrocytes = settings: cited from earlier work

## CCCCCCCCCCCCC/C=C/[C@@H](O)[C@@H](N)CO[C@@H]1O[C@H](CO)[C@H](O)[C@H](O)[C@H]1O [psychosine]
[1]
  concentration at which immortalized OPC line is vulnerable / marked cell death: 50 µM
OPCs
  concentration causing marked reduction in clonal size: 1 µM
[2]
  effect on pH of exposed cells: becomes more alkaline
Primary OPCs
  exposure level as low as which toxic for OPCs: 5 µM
Primary OPCs; purified OPCs, by day 3, calcein AM, CELIGO
  concentration causing marked cell death: 3.3 µM
[3]
  vulnerability of hNSCs compared with rat OPCs: at least as vulnerable
[4]
  concentration enough to greatly reduce cell migration: 1 µM
oligodendrocytes
  concentration at which oligodendrocytes are sensitive: 10 µM
